Experiment [1] deals with HBL100 cells (human mammary epithelium). The experiment can be described thus: Cell adhesion test to immobilized peptides, HBL100. It is filed as cell-based. How it is done: Dose-dependent cell adhesion of cell line HBL100 to various peptides 1, 2 and 3. The peptides were immobilized in 96-well plates at the concentrations given on the abscissa. 8×10^4 cells were deposited in each well and plates were incubated at 37° C. for 1 hour. After washing, attached cells were fixed and cell adhesion was measured as described in the methodology section.
(§1) Peptides 1, 2 and 3 were used for the cell adhesion experiments. A range of 7 decreasing concentrations (100 micrograms/ml, 50 micrograms/ml, 25 micrograms/ml, 12.5 micrograms/ml, 6.25 micrograms/ml, 3.125 micrograms/ml and 1.562 micrograms/ml) was made up by successive dilution in PBS (Phosphate Buffer Saline, KH2PO4 1.54 mM; Na2HPO4 1.42 mM; NaCl-131 mM) using a starting solution at a concentration of 1 mg/ml. These solutions were immediately distributed onto a 96-well culture plate (Greinher, Dutscher, Brumath, France) at a rate of 100 μl per well. Plates were then placed at +4° C. for 16 to 18 hours. The solutions were then removed by turning the plates and each well was saturated with a 1% PBS-BSA solution (bovine serum albumin). Three additional wells without the substrate underwent the same treatment and were used as blanks.
(§2) Epithelial cells were detached from the culture dishes using a trypsin/EDAT solution (0.05-0.02%) then suspended in DMEM medium without additives for the cell lines and in KBM-2 without additive for human keratinocytes. The number of seeded cells per well is given in the graphs (50,000 to 100,000 cells per well).
(§3) After cell seeding, the multi-well plates were placed in an incubator at 37° C. under 5% CO2. After incubation for 30 to 60 minutes, cells were observed under a phase contrast microscope in order to verify that the test was conducted correctly. The adhesion medium was then removed and each well was washed in a sterile PBS solution to remove non-adhering cells. The remaining cells, attached to the substrate, were then fixed using a solution of 1% glutaraldehyde in PBS for 15 minutes. The glutaraldehyde solution as removed and the cells were stained with a crystal violet solution diluted to 1% in distilled water for 30 minutes.
After rinsing in water several times, cells were permeabilized by means of a 0.02% triton solution for 15 minutes in order to solubilize the crystal violet. Absorbances were read at 570 nm using an ELISA plate reader (MR500, Dynatech, Guernsey, Channel Islands). Each experimental point was carried out in triplicate. The blank value represented the mean absorbance of 3 control wells (BSA). This was subtracted from each of the optical density values for the experimental points. We then calculated the mean for the three absorbance values for each of the triplicate samples.
The results are presented in the form of a graph with the absorbance values on the ordinate and the various substrate concentrations on the abscissa. Attached cells were photographed by phase contrast microscopy.
The following cells from epithelial cell lines were used initially (commonly used in preliminary studies on cell adhesion): • line HT1080 cells (human fibrosarcoma), American Type Culture Collection CCL-121. • line HB100 cells (human mammary epithelium), American Type Culture Collection HTB-124. • line A431 cells (skin epitheliods), American Type Culture Collection CRL-1555.

Experiment [2] has as its system HT1080 cells (human fibrosarcoma). The experiment can be described thus: Cell adhesion test to immobilized peptides, HT1080. It is filed as cell-based. Here is the method: Dose-dependent cell adhesion of cell line HT1080 to various peptides 1, 2 and 3. The peptides were immobilized in 96-well plates at the concentrations given on the abscissa. 8×10^4 cells were deposited in each well and plates were incubated at 37° C. for 1 hour. After washing, attached cells were fixed and cell adhesion was measured as described in the methodology section.
Dose-dependent cell adhesion of HT1080 cells to various peptide TALRIRATYGEY (SEQ ID NO. 1). The peptides were immobilized in 96-well plates in the quantities given on the abscissa. 8×10^4 cells and 15×10^4 cells were deposited in each well and plates were incubated at 37° C. for 1 hour. After washing, attached cells were fixed and cell adhesion was measured as described in the methodology section. Cells were observed by phase contrast microscopy then photographed. Bar =50 μm
as §1, §2, §3
After rinsing in water several times, cells were permeabilized by means of a 0.02% triton solution for 15 minutes in order to solubilize the crystal violet. Absorbances were read at 570 nm using an ELISA plate reader (MR500, Dynatech, Guernsey, Channel Islands). Each experimental point was carried out in triplicate. The blank value represented the mean absorbance of 3 control wells (BSA). […] We then calculated the mean for the three absorbance values for each of the triplicate samples.
The results are presented in the form of a graph with the absorbance values on the ordinate and the various substrate concentrations on the abscissa. […]
A second approach was taken in order to determine the minimum quantity of active peptide and the number of adhering cells was increased in order to obtain a confluent cell network. […]

For experiment [3], the system named is HT1080 cells. Briefly: Cell proliferation test (XTT), HT1080. Conditions: HT1080, peptide 0.5% and 1%, serum-free medium, 5th hour. It is filed as cell-based, human. Here is the method: HT1080 cells (A) and HBL100 cells (B) were seeded in 96-well plates at a rate of 10,000 cells per well. After 24 hours, the culture medium was removed and replaced with serum-free medium containing the peptide quantities given in the graphs and reagent XTT. The plates were then placed in the incubator at 37° C. and absorbance readings were taken at 1 h, 2 h, 3 h, 4 h and 5 h. Peptide-free controls were carried out on the same plate.
The effect of the peptide on cell proliferation was analysed with the aid of a calorimetric test (Cell Proliferation Kit XTT, Roche Diagnostics, Meylan, France) on the cells use for the cell adhesion test, i.e. HT1080, A431, HBL100 cells and normal human keratinocytes from young and elderly individuals.
The chemical reaction used in the test is based on the production of NADPH by living cells, leading to the reduction of yellow tetrazolium XTT salts to orange formazan salts. Absorbance was measured at 490 nm using an ELISA plate reader. Cells were seeded in 96-well plates at a rate of 10,000 cells per well (6 wells/condition) in KBM-2 culture medium. After 24 hours in culture at 37° C. with 5% CO2, the culture medium was removed and replaced with serum-free medium containing the peptide quantities given in the graphs and the test reagent. The plates were then placed in the incubator at 37° C. and absorbance readings were taken at 1 h, 2 h, 3 h, 4 h and 5 h. […]
In general terms: Formazan colour is commonly taken as a measure of viable cells.

In the case of “TALRIRATYGEY (Human laminin 5) [Peptide 1]”, the “cell adhesion to immobilized peptide” value in experiment [1] (HBL100, 0 to 10 micrograms immobilized peptide, 8×10^4 cells per well, 1 hour 37° C., absorbance 570 nm) is “led to cell adhesion”; in experiment [2] (HT1080, 0 to 10 micrograms immobilized peptide, 8×10^4 cells per well, 1 hour 37° C., absorbance 570 nm) it was “led to cell adhesion”. For the same sequence, the “immobilized peptide quantity at which adhesion occurred” value in experiment [1] (HBL100, FIG. 2) came out at 0.31 micrograms; in experiment [2] (HT1080, FIG. 3), 0.15 micrograms. Also, the “immobilized peptide quantity at which maximum adhesion was achieved” value in experiment [1] (HBL100, FIG. 2) came to 1.25 micrograms; in experiment [2] (HT1080, FIG. 3), 0.15 micrograms. Besides, in experiment [3], the “mean increase in cell proliferation compared to the control” value stood at 8%.

(Values after patent US7645740B2, “Peptide sequence found in Laminin 5 for treating skin impairments” (Laboratoires d'Anjou Centre National de la Recherche …, priority 2004, dated 2010).)
